Like-named read-outs stand apart in the source and are kept apart here.
What was measured:
Experiment in all cases: 72-hour CellTiter-Glo 2.0 growth inhibition screen (single agent, 9x9 combination dose matrix);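 for Best CI Level: inhibition effect level at which the best CI was calculated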
Format in all cases: cell-based
HCC1171 = tested on: HCC1171;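 for Best CI Level: inhibition effect level at which the best CI was calculated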
Gp2D = details: for EC50: GP2d
TOV-21G = tested on: TOV-21G;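 for Best CI Level: inhibition effect level at which the best CI was calculated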
SW48 KRAS (G12D/+) = details: for EC50: SW48, 72 h, read-out: EC50
[1] = HCC1171 (KRAS G12C), enhancer + MEI-522 (Voruciclib), 72 h;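 for Best CI Level: inhibition effect level at which the best CI was calculated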
[2] = HCC1171, Lung, Additional Single Agent Responses (inhibition, % I), 72 h
[3] = enhancer combined with MEI-522 (Voruciclib), HCC1171 (Lung), 72 hours, inhibition data
[4] = Gp2D (KRAS G12D), enhancer + MEI-522 (Voruciclib), 72 h;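 for Best CI Level: inhibition effect level at which the best CI was calculated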
[5] = Gp2D, Colorectal, Additional Single Agent Responses (inhibition, % I), 72 h
[6] = enhancer combined with MEI-522 (Voruciclib), Gp2D (Colorectal), 72 hours, inhibition data
[7] = TOV-21G (KRAS G13C), enhancer + MEI-522 (Voruciclib), 72 h;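 for Best CI Level: inhibition effect level at which the best CI was calculated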
[8] = enhancer combined with MEI-522 (Voruciclib), TOV-21G (Ovary), 72 hours, inhibition data
[9] = Homo sapiens, SW48 KRAS (G12D/+), Colorectal, Additional Single Agent Responses (inhibition, % I), 72 h
[10] = Homo sapiens, SW48 KRAS (G12D/+), Colorectal, growth inhibition (GI) curve, single agent, 72 h
[11] = SW48 KRAS (G12D/+), enhancer + MEI-522 (Voruciclib), 72 h
[12] = enhancer combined with MEI-522 (Voruciclib), SW48 KRAS (G12D/+) (Colorectal), 72 hours, inhibition data

EC50 (HCC1171; [2]): 15.5 nM | GI50 (HCC1171; HCC1171, Lung, growth inhibition (GI) curve, single agent, 72 h): 33 nM | EC50 (SW48 KRAS (G12D/+); [9]): 14 nM | EC50 (SW48 KRAS (G12D/+); [10]): 15.7 nM | IC50 (SW48 KRAS (G12D/+); [9]): 17.8 nM | GI50 (SW48 KRAS (G12D/+); [10]): 13.9 nM
SMILES: CN1CCN(c2ccc(OC(F)(F)F)c(Nc3ncc4c(n3)-c3c(c(C(N)=O)nn3CCO)CC4)c2)CC1 [Onvansertib]
Best CI (HCC1171; [1]): 1.01 | Bliss Volume (HCC1171; [1]): −2.83 | HSA volume (HCC1171; [1]): −2.66 | Loewe Volume (HCC1171; [1]): −1.72 | Synergy Score (HCC1171; [1]): 1.86 | Response Area (HCC1171; [2]): 1.75 | Emax (HCC1171; HCC1171, Lung, Additional Single Agent Responses, 72 h, read-out: Max Response (% I)): 46% | Response Area (HCC1171; HCC1171, Lung, growth inhibition (GI), AUC, single agent, 72 h): 3.02 | Emax (HCC1171; HCC1171, Lung, growth inhibition (GI), single agent, 72 h, read-out: Max Response (% GI)): 81% | Best CI (HCC1171; [3]): 0.62 | Bliss Volume (HCC1171; [3]): −3.14 | HSA volume (HCC1171; [3]): −1.61 | Loewe Volume (HCC1171; [3]): −1.03 | Synergy Score (HCC1171; [3]): 0.59 | Best CI Level (HCC1171; enhancer combined with MEI-522 (Voruciclib), HCC1171 (Lung), 72 hours, inhibition data, unit assumed): 50% | EC50 (Gp2D; 72 h, Colorectal, Additional Single Agent Responses (inhibition, % I)): 23.8 nM | EC50 (Gp2D; 72 h, Colorectal, growth inhibition (GI) curve, single agent): 33.9 nM | Best CI (Gp2D; [4]): 0.96 | Bliss Volume (Gp2D; [4]): 7.51 | HSA volume (Gp2D; [4]): −1.36 | Loewe Volume (Gp2D; [4]): −1.41 | Synergy Score (Gp2D; [4]): 3.16 | IC50 (Gp2D; [5]): 25.5 nM | Response Area (Gp2D; [5]): 4.29 | Emax (Gp2D; Gp2D, Colorectal, Additional Single Agent Responses, 72 h, read-out: Max Response (% I)): 93% | GI50 (Gp2D; Gp2D, Colorectal, growth inhibition (GI) curve, single agent, 72 h): 22.4 nM | Response Area (Gp2D; Gp2D, Colorectal, growth inhibition (GI), AUC, single agent, 72 h): 7.46 | Emax (Gp2D; Gp2D, Colorectal, growth inhibition (GI), single agent, 72 h, read-out: Max Response (% GI)): 170% | Best CI (Gp2D; [6]): 0.77 | Best CI Level (Gp2D; [6]): 20 | Bliss Volume (Gp2D; [6]): 0.17 | HSA volume (Gp2D; [6]): 0.25 | Loewe Volume (Gp2D; [6]): 0.05 | Synergy Score (Gp2D; [6]): 0.56 | EC50 (TOV-21G; Homo sapiens, TOV21G, 72 h, TOV-21G, Ovary, Additional Single Agent Responses (inhibition, % I)): 28.1 nM | EC50 (TOV-21G; Homo sapiens, TOV21G, 72 h, TOV-21G, Ovary, growth inhibition (GI) curve, single agent): 34.2 nM | IC50 (TOV-21G; Homo sapiens, TOV21G, TOV-21G, Ovary, Additional Single Agent Responses (inhibition, % I), 72 h): 31.6 nM | Emax (TOV-21G; Homo sapiens, TOV21G, TOV-21G, Ovary, Additional Single Agent Responses, 72 h, read-out: Max Response (% I)): 86% | GI50 (TOV-21G; Homo sapiens, TOV21G, TOV-21G, Ovary, growth inhibition (GI) curve, single agent, 72 h): 26.5 nM | Emax (TOV-21G; Homo sapiens, TOV21G, TOV-21G, Ovary, growth inhibition (GI), single agent, 72 h, read-out: Max Response (% GI)): 143% | Best CI (TOV-21G; [7]): 0.40 | Bliss Volume (TOV-21G; [7]): 5.55 | HSA volume (TOV-21G; [7]): −0.24 | Loewe Volume (TOV-21G; [7]): −0.71 | Synergy Score (TOV-21G; [7]): 1.56 | Response Area (TOV-21G; TOV-21G, Ovary, Additional Single Agent Responses (inhibition, % I), 72 h): 3.84 | Response Area (TOV-21G; TOV-21G, Ovary, growth inhibition (GI), AUC, single agent, 72 h): 6.09 | Best CI (TOV-21G; [8]): 0.56 | Best CI Level (TOV-21G; [8]): 30 | Bliss Volume (TOV-21G; [8]): 0.52 | HSA volume (TOV-21G; [8]): 0.33 | Loewe Volume (TOV-21G; [8]): 0.43 | Synergy Score (TOV-21G; [8]): 0.98 | Emax (SW48 KRAS (G12D/+); Homo sapiens, SW48 KRAS (G12D/+), Colorectal, Additional Single Agent Responses, 72 h, read-out: Max Response (% I)): 92% | Emax (SW48 KRAS (G12D/+); Homo sapiens, SW48 KRAS (G12D/+), Colorectal, growth inhibition (GI), single agent, 72 h, read-out: Max Response (% GI)): 168% | Response Area (SW48 KRAS (G12D/+); SW48 KRAS (G12D/+), Colorectal, Additional Single Agent Responses (inhibition, % I), 72 h): 3.73 | Response Area (SW48 KRAS (G12D/+); SW48 KRAS (G12D/+), Colorectal, growth inhibition (GI), AUC, single agent, 72 h): 5.57 | Best CI (SW48 KRAS (G12D/+); [11]): 0.39 | Bliss Volume (SW48 KRAS (G12D/+); [11]): 5.34 | HSA volume (SW48 KRAS (G12D/+); [11]): −1.32 | Loewe Volume (SW48 KRAS (G12D/+); [11]): 1.06 | Synergy Score (SW48 KRAS (G12D/+); [11]): 8.15 | Best CI (SW48 KRAS (G12D/+); [12]): 0.51 | Bliss Volume (SW48 KRAS (G12D/+); [12]): −0.39 | HSA volume (SW48 KRAS (G12D/+); [12]): −0.28 | Loewe Volume (SW48 KRAS (G12D/+); [12]): 0.65 | Synergy Score (SW48 KRAS (G12D/+); [12]): 2.12 | Best CI Level (SW48 KRAS (G12D/+); enhancer combined with MEI-522 (Voruciclib), SW48 KRAS (G12D/+) (Colorectal), 72 hours, inhibition data, unit assumed): 20%
